Results: ChEMBL document CHEMBL1135237, “Synthesis and antibacterial activity of linezolid analogues” (2002)
Values after ≈ are worked out from the molar mass of the structure shown.

How the values were obtained:
Type in all cases: functional
Streptococcus pyogenes [1] = assay: Compound was evaluated for minimum inhibitory concentration against Streptococcus pyogenes 114 strain
Enterococcus faecalis [2] = assay: Compound was evaluated for minimum inhibitory concentration against Enterococcus faecalis 68
[3] = system: Staphylococcus epidermidis; assay: Compound was evaluated for minimum inhibitory concentration against Staphylococcus epidermidis 975 strain
[4] = system: Staphylococcus epidermidis; assay: Compound was evaluated for minimum inhibitory concentration against Staphylococcus epidermidis 9759 strain
Streptococcus pyogenes [5] = assay: Compound was evaluated for minimum inhibitory concentration against Streptococcus pyogenes 102 strain
Streptococcus pneumoniae [6] = assay: Compound was evaluated for minimum inhibitory concentration against Streptococcus pneumoniae 9798 strain
Staphylococcus aureus [7] = assay: Compound was evaluated for minimum inhibitory concentration against Staphylococcus aureus 966 strain
Streptococcus pneumoniae [8] = assay: Compound was evaluated for minimum inhibitory concentration against Streptococcus pneumoniae 9757 strain
Streptococcus pneumoniae [9] = assay: Compound was evaluated for minimum inhibitory concentration against Streptococcus pneumoniae 9753 strain
Staphylococcus aureus [10] = assay: Compound was evaluated for minimum inhibitory concentration against Staphylococcus aureus 9721 strain
Staphylococcus aureus [11] = assay: Compound was evaluated for minimum inhibitory concentration against Staphylococcus aureus 9616 strain
Streptococcus sp. [12] = assay: Compound was evaluated for minimum inhibitory concentration against Streptococcus A 44 strain
Enterococcus faecalis [13] = assay: Compound was evaluated for minimum inhibitory concentration against Enterococcus faecalis 50
Staphylococcus aureus [14] = assay: Compound was evaluated for minimum inhibitory concentration against Staphylococcus aureus 975 strain
Staphylococcus aureus [15] = assay: Compound was evaluated for minimum inhibitory concentration against Staphylococcus aureus 9776 strain
Streptococcus sp. [16] = assay: Compound was evaluated for minimum inhibitory concentration against Streptococcus A 29 strain
[17] = system: Staphylococcus epidermidis; assay: Compound was evaluated for minimum inhibitory concentration against Staphylococcus epidermidis 9753 strain
Enterococcus faecalis [18] = assay: Compound was evaluated for minimum inhibitory concentration against Enterococcus faecalis 50 strain

| Compound | MIC (Streptococcus pyogenes [1]) [µg/mL] | MIC (Enterococcus faecalis [2]) [µg/mL] | MIC [3] [µg/mL] | MIC [4] [µg/mL] | MIC (Streptococcus pyogenes [5]) [µg/mL] | MIC (Streptococcus pneumoniae [6]) [µg/mL] | MIC (Staphylococcus aureus [7]) [µg/mL] | MIC (Streptococcus pneumoniae [8]) [µg/mL] | MIC (Streptococcus pneumoniae [9]) [µg/mL] | MIC (Staphylococcus aureus [10]) [µg/mL] | MIC (Staphylococcus aureus [11]) [µg/mL] | MIC (Streptococcus sp. [12]) [µg/mL] | MIC (Enterococcus faecalis [13]) [µg/mL] | MIC (Staphylococcus aureus [14]) [µg/mL] | MIC (Staphylococcus aureus [15]) [µg/mL] | MIC (Streptococcus sp. [16]) [µg/mL] | MIC [17] [µg/mL] | MIC (Enterococcus faecalis [18]) [µg/mL] |
| --- | --- | --- | --- | --- | --- | --- | --- | --- | --- | --- | --- | --- | --- | --- | --- | --- | --- | --- |
| CC(=O)NC[C@H]1CN(c2ccc(N3CCN(c4ccccc4)CC3)c(F)c2)C(=O)O1 | 1 (≈ 2.42 µM) | 2 (≈ 4.85 µM) | 1 (≈ 2.42 µM) | 1 (≈ 2.42 µM) | 1 (≈ 2.42 µM) | 1 (≈ 2.42 µM) | 2 (≈ 4.85 µM) | 0.25 (≈ 0.606 µM) | 0.5 (≈ 1.21 µM) | 1 (≈ 2.42 µM) | 1 (≈ 2.42 µM) | 2 (≈ 4.85 µM) | 1 (≈ 2.42 µM) | 1 (≈ 2.42 µM) | 1 (≈ 2.42 µM) | 0.5 (≈ 1.21 µM) | 0.5 (≈ 1.21 µM) |  |
| CC(=O)NC[C@H]1CN(c2ccc(N3CCN(c4ccc(F)cc4)CC3)c(F)c2)C(=O)O1 | 2 (≈ 4.65 µM) | 4 (≈ 9.29 µM) | 1 (≈ 2.32 µM) | 1 (≈ 2.32 µM) | 1 (≈ 2.32 µM) | 1 (≈ 2.32 µM) | 1 (≈ 2.32 µM) | 1 (≈ 2.32 µM) | 1 (≈ 2.32 µM) | 1 (≈ 2.32 µM) | 2 (≈ 4.65 µM) | 1 (≈ 2.32 µM) | 1 (≈ 2.32 µM) | 0.5 (≈ 1.16 µM) | 1 (≈ 2.32 µM) | 1 (≈ 2.32 µM) | 0.5 (≈ 1.16 µM) |  |
| CC(=O)NC[C@H]1CN(c2ccc(N3CCOCC3)c(F)c2)C(=O)O1 [LINEZOLID] | 0.5 (≈ 1.48 µM) |  | 0.5 (≈ 1.48 µM) | 0.5 (≈ 1.48 µM) | 0.5 (≈ 1.48 µM) |  | 0.5 (≈ 1.48 µM) |  |  | 0.5 (≈ 1.48 µM) | 1 (≈ 2.96 µM) | 0.5 (≈ 1.48 µM) |  | 0.25 (≈ 0.741 µM) | 0.5 (≈ 1.48 µM) | 0.25 (≈ 0.741 µM) | 0.25 (≈ 0.741 µM) | 0.5 (≈ 1.48 µM) |

Further molecules by falling MIC (Streptococcus pyogenes [1]), results first:

| MIC (Streptococcus pyogenes [1]) [µg/mL] | MIC (Enterococcus faecalis [2]) [µg/mL] | MIC [3] [µg/mL] | MIC [4] [µg/mL] | MIC (Streptococcus pyogenes [5]) [µg/mL] | MIC (Streptococcus pneumoniae [6]) [µg/mL] | MIC (Staphylococcus aureus [7]) [µg/mL] | MIC (Streptococcus pneumoniae [8]) [µg/mL] | MIC (Streptococcus pneumoniae [9]) [µg/mL] | MIC (Staphylococcus aureus [10]) [µg/mL] | MIC (Staphylococcus aureus [11]) [µg/mL] | MIC (Streptococcus sp. [12]) [µg/mL] | MIC (Enterococcus faecalis [13]) [µg/mL] | MIC (Staphylococcus aureus [14]) [µg/mL] | MIC (Staphylococcus aureus [15]) [µg/mL] | MIC (Streptococcus sp. [16]) [µg/mL] | MIC [17] [µg/mL] | Compound | MIC (Enterococcus faecalis [18]) [µg/mL] |
| --- | --- | --- | --- | --- | --- | --- | --- | --- | --- | --- | --- | --- | --- | --- | --- | --- | --- | --- |
| 16 (≈ 31.8 µM) | 32 (≈ 63.7 µM) | 8 (≈ 15.9 µM) | 16 (≈ 31.8 µM) | 32 (≈ 63.7 µM) | 8 (≈ 15.9 µM) | 8 (≈ 15.9 µM) | 4 (≈ 7.96 µM) | 4 (≈ 7.96 µM) | 16 (≈ 31.8 µM) | 8 (≈ 15.9 µM) | 32 (≈ 63.7 µM) | 8 (≈ 15.9 µM) | 4 (≈ 7.96 µM) | 8 (≈ 15.9 µM) | 4 (≈ 7.96 µM) | 4 (≈ 7.96 µM) | CC(=O)NC[C@H]1CN(c2ccc(N3CCN(C(c4ccccc4)c4ccccc4)CC3)c(F)c2)C(=O)O1 |  |
| 2 (≈ 4.52 µM) |  | 1 (≈ 2.26 µM) | 1 (≈ 2.26 µM) | 1 (≈ 2.26 µM) | 1 (≈ 2.26 µM) | 2 (≈ 4.52 µM) | 1 (≈ 2.26 µM) | 1 (≈ 2.26 µM) | 1 (≈ 2.26 µM) | 1 (≈ 2.26 µM) | 1 (≈ 2.26 µM) | 1 (≈ 2.26 µM) | 1 (≈ 2.26 µM) | 1 (≈ 2.26 µM) | 1 (≈ 2.26 µM) | 1 (≈ 2.26 µM) | COc1ccc(N2CCN(c3ccc(N4C[C@H](CNC(C)=O)OC4=O)cc3F)CC2)cc1 |  |
